Assays:
[1] = LD50 / acute toxicity, intraperitoneal route; assay type: in vivo; details: i.p.; for Toxicity (Gleason): Gleason class in words, classes not defined
[2] = Hematic levels at different times after oral administration (absorption); assay type: in vivo, Wistar rat; details: 100 mg/kg expressed as vincamine/apovincamine, 5% carboxymethyl cellulose suspension
Procedure: (§1) For the compounds of the present invention a number of pharmacological and pharmacokinetic tests have been carried out. […] As regards the pharmacological and pharmacodynamic activity, it has been studied on the percent variations of the hematic flow, as recorded at the vertebral arteria in the dog after administration of the tested compounds. As regards the pharmacokinetic tests, the compounds were administered per oral route to the Wistar rat, and the hematic levels at different times from the administration were measured.
For the evaluation of the absorption, all the compounds have been orally administered at the dosage of 100 mg/kg, expressed as vincamine and apovincamine, in form of a suspension in a 5% carboxymethyl cellulose solution.
The absorption was determined by evaulating the hematic levels at the following times (minutes) : 0, 30, 120, 240, 480, 10 hours and 12 hours, in order also to assess the time from the administration (max conc.time) the maximum absorption occurred.
The vincamine and apovincamine concentrations were assessed by chromatographic method.
For the evaluation of the prolonged action of the salts and of the adducts of vincamine and apovincamine the following criterium was adopted; as derivatives having a long-acting effect, there are considered those which, 120 minutes after the administration, show hematic levels higher than those obtained with vincamine and apovincamine.

vertebral arteria = assay: Cerebral vasodilating activity: hematic flow at the vertebral arteria after i.v. administration; assay type: in vivo; details: i.v. (femoral vein), 5 mg/kg of vincamine/apovincamine, anesthetized dog, 4 animals per compound
Procedure: as §1
The cerebral vasodilating activity was studied in the anestetized dog, by measuring, by means of Statham periarterial electromagnetic flowmeters, the hematic flow at the level of the […] which, in such animal species, constitutes the greatest blood supply to the brain.
The resuls are reported in the TABLE 2 (last column) as the percent variations of the flow measured at the level of the ledt vertebral arteria after the i.v. administration of the several compounds to be tested to groups of 4 animals for each compound. The results also confirm that the compounds of the invention are all endowed with a vasodilating activity at the level of the cerebral circulus, such an action being, for some compounds, much more remarkable than that of vincamine and apovincamine.

Solubility = assay type: physicochemical; details: qualitative; for solubility in alcohol: alcohol (ethyl alcohol)

| Molecule | LD50 [1] | Toxicity (Gleason) [1] | Max. conc. time ([2]; 100 mg/kg) | % increase (percent variation of hematic flow, left vertebral arteria) (vertebral arteria; 5 mg/kg) | solubility in alcohol (Solubility) | solubility in water (Solubility) | solubility in the common (organic) solvents (Solubility) | solubility (solvent not given) (Solubility; solvent not stated) | Max. conc. time [2] | % increase (percent variation of hematic flow, left vertebral arteria) (vertebral arteria) |
| --- | --- | --- | --- | --- | --- | --- | --- | --- | --- | --- |
| CC[C@@]12C=C(C(=O)OC)n3c4c(c5ccccc53)CCN(CCC1)[C@H]42 [Example 16.b, Apovincamine acetylsalicylate] | 750 mg/kg | modest | 60 min | 40.1% | soluble | very little soluble |  |  |  |  |
| CC[C@]12CCCN3CCc4c(n(c5ccccc45)[C@@](O)(C(=O)OC)C1)[C@@H]32 [Example 18.a, Vincamine enanthate] | 750 mg/kg | modest | 60 min | 27.7% |  |  | insoluble |  |  |  |
| CC[C@@]12C=C(C(=O)OC)n3c4c(c5ccccc53)CCN(CCC1)[C@H]42 [Example 18.b] | 1500 mg/kg | light | 120 min | 33.1% | insoluble | insoluble |  |  |  |  |
| CC[C@]12CCCN3CCc4c(n(c5ccccc45)[C@@](O)(C(=O)OC)C1)[C@@H]32 [Example 19.a, Vincamine p-chlorophenoxyacetate] | 750 mg/kg | modest | 480 min | 22.0% | soluble | insoluble | insoluble |  |  |  |
| CC[C@@]12C=C(C(=O)OC)n3c4c(c5ccccc53)CCN(CCC1)[C@H]42 [Example 19.b, Apovincamine p-chlorophenoxyacetate] | 750 mg/kg | modest | 480 min | 28.4% |  | insoluble |  |  |  |  |
| CC[C@]12CCCN3CCc4c(n(c5ccccc45)[C@@](O)(C(=O)OC)C1)[C@@H]32 [Example 20.a, Vincamine theophylline-7-acetate] | 700 mg/kg | modest | 60 min | 24.5% | soluble | insoluble | insoluble |  |  |  |
| CC[C@]12CCCN3CCc4c(n(c5ccccc45)[C@@](O)(C(=O)OC)C1)[C@@H]32 [Example 21.a] | 900 mg/kg | modest | 20 min | 30.0% |  | insoluble | insoluble |  |  |  |
| CC[C@@]12C=C(C(=O)OC)n3c4c(c5ccccc53)CCN(CCC1)[C@H]42 [Example 21.b, Apovincamine caproate] | 1900 mg/kg | light | 60 min | 36.4% | insoluble | insoluble |  |  |  |  |
| CC[C@]12CCCN3CCc4c(n(c5ccccc45)[C@@](O)(C(=O)OC)C1)[C@@H]32 [Example 22.a, Vincamine caprate] | 2000 mg/kg | negligible | 120 min | 23.9% |  | insoluble | insoluble |  |  |  |
| CC[C@@]12C=C(C(=O)OC)n3c4c(c5ccccc53)CCN(CCC1)[C@H]42 [Example 22.b, Apovincamine caprate] | 1900 mg/kg | light | 240 min | 28.2% | insoluble | insoluble |  |  |  |  |
| CC[C@]12CCCN3CCc4c(n(c5ccccc45)[C@@](O)(C(=O)OC)C1)[C@@H]32 [Example 25.a, Vincamine (D,L)-mandelate] | 900 mg/kg | modest | 20 min | 39.4% | soluble | insoluble | insoluble |  |  |  |
| CC[C@]12CCCN3CCc4c(n(c5ccccc45)[C@@](O)(C(=O)OC)C1)[C@@H]32 [Example 26.a] | 1000 mg/kg | modest | 120 min | 23.8% |  | insoluble | insoluble |  |  |  |
| CC[C@@]12C=C(C(=O)OC)n3c4c(c5ccccc53)CCN(CCC1)[C@H]42 [Example 26.b, Apovincamine indolyl-3-acetate] | 750 mg/kg | modest | 120 min | 28.7% | poorly soluble | insoluble |  |  |  |  |
| CC[C@]12CCCN3CCc4c(n(c5ccccc45)[C@@](O)(C(=O)OC)C1)[C@@H]32 [Example 27.a, Vincamine hydroquinone] | 500 mg/kg | modest | 120 min | 29.1% |  | insoluble | insoluble |  |  |  |
| CC[C@]12CCCN3CCc4c(n(c5ccccc45)[C@@](O)(C(=O)OC)C1)[C@@H]32 [Example 28.a, Vincamine salicylate] | 700 mg/kg | modest | 240 min | 25.7% | soluble | insoluble | insoluble |  |  |  |
| CC[C@@]12C=C(C(=O)OC)n3c4c(c5ccccc53)CCN(CCC1)[C@H]42 [Example 28.b, Apovincamine salicylate] | 750 mg/kg | modest | 240 min | 26.7% | soluble |  |  |  |  |  |
| CC[C@]12CCCN3CCc4c(n(c5ccccc45)[C@@](O)(C(=O)OC)C1)[C@@H]32 [Example 29.a, Vincamine dihydroxyphenylalanine (DOPA)] | 1500 mg/kg | light | 20 min | 38.2% |  | practically insoluble | practically insoluble |  |  |  |
| CC[C@@]12C=C(C(=O)OC)n3c4c(c5ccccc53)CCN(CCC1)[C@H]42 [Example 29.b, Apovincamine dihydroxyphenylalanine] | 900 mg/kg | light | 120 min | 41.3% |  |  |  | insoluble |  |  |
| Apovincamine alginate [Example 23.b] | 750 mg/kg | modest |  |  | insoluble | insoluble |  |  | 60 min | 38.0% |
